Laboratory results from US20120277257A1, “Methods of Treating Diseases, Pharmaceutical Compositions, and Pharmaceutical Dosage Forms” (MYREXIS, INC., priority 2009, published 2012).

Legend:
[1] = tested on: MIA PaCa-2 pancreatic cancer; assay: MIA PaCa-2 pancreatic cancer xenograft; details: 100 mg/kg ip, weekly, Day 15
[2] = tested on: NCI-N87 Her2+ gastric cancer; assay: NCI-N87 (Her2+) gastric cancer xenograft in athymic nude mice; format: in vivo; details: 40 mg/kg oral, thrice weekly for three weeks, day 21
Experimental: The efficacy of Compound 1 was compared to that of SNX-5422 (Serenex, Pfizer, Inc.) on the growth of NCI-N87 (Her2+) human gastric cancer cells as a xenograft in athymic nude mice model. Animals were dosed with either 200 mg/kg of Compound 1 on days 1 through 21 or 40 mg/kg of SNX-5422 thrice weekly for three weeks. Tumor volumes and body weights were determined from Days 1 to 39.
Five million NCI-N87 cells were implanted subcutaneously in the right flank of female nude mice (Hsd:athymic nude-Foxn1^nu). When the median tumor volume was approximately 123 mm^3, mice were randomized into three cohorts of ten animals. One cohort was dosed orally with vehicle, one cohort was dosed orally with Compound 1 (200 mg/kg) formulated in vehicle, and one cohort was dosed orally with SNX-5422 (40 mg/kg) formulated in dimethylacetamide/polyethylene glycol 300. Vehicle and Compound 1 were administered on days 1-21 and SNX-5422 was administered thrice weekly on Days 1, 3, 5, 8, 10, 12, 15, 17 and 19. The mice were observed daily for mortality and signs of toxicity.
Xenografted mice bearing N-87 tumors (median volume ˜125 mm^3) were dosed orally with Compound 1 for three weeks with the dosing schedules indicated in FIG. 4.
Additionally, xenografted mice bearing N-87 tumors (median volume ˜115 mm^3) were dosed orally with Compound 1 for twenty-one days at 200 mg/kg, once daily or 100 mg/kg, twice-daily as indicated in FIG. 5. Tumor growth inhibition (TGI) was monitored up to Day 39.

[3] = tested on: A549 non-small cell lung cancer; assay: A549 non-small cell lung cancer xenograft; format: in vivo, mice; details: maximum tolerated dose, oral once daily for 21 days, Day 22

## O=c1[nH]cc(F)c(=O)[nH]1 [5-Fluorouracil, reference compound]
[1]
  TGI (tumor growth inhibition): 58%

## CC1(C)CC(=O)c2c(C(F)(F)F)nn(-c3ccc(C(N)=O)c(N[C@H]4CC[C@H](OC(=O)CN)CC4)c3)c2C1 [SNX-5422, reference compound]
[2]
  decrease in median tumor volume: 22%

## C#Cc1cccc(Nc2ncnc3cc(OCCOC)c(OCCOC)cc23)c1 [erlotinib]
[3]
  TGI (tumor growth inhibition): 88%
